≈ marks a conversion by molar mass, not a printed value. Read-outs that look alike come from different tables or passages of the source.
Assays:
E. coli [1] = test: in vitro antibacterial activity, two-fold serial dilution in Brain-Heart Infusion Broth (MIC); format: cell-based; conditions: Escherichia coli, overnight, anaerobic
Protocol: (§1) The broth is inoculated with bacteria and with the test quinoxaline-1,4-dioxide and then it is incubated overnight under anerobic conditions. On the next day, the test is read visually. The minimum inhibitory concentration (MIC) of test compound is the lowest concentration which prevents turbidity, i.e., which prevents growth of the microorganism.
(§2) In vitro and in vivo activity of representative compounds of this invention, determined as aforesaid, are reported in the following tabulation for compounds of the formula: [drawing 12]

Strep. pyrogens = test: as above; format: cell-based; conditions: overnight, anaerobic
Protocol: as §1, §2

Strep. pyogenes = test: in vivo activity in mice infected with a lethal inoculum of Strep. pyogenes; conditions: Streptococcus pyogenes, multiple dosing
Protocol: (§3) In determining the in vivo activity of the quinoxaline-1,4-dioxides of this invention, the test compound is administered to mice which have been infected by […] injection of a lethal inoculum of pathogenic bacteria. The test compound is administered using a multiple dosing regimen and using either the oral (PO) or the subcutaneous (SC) route. The inoculum of bacteria varies from about 1 to about 10 times the amount needed to kill 100% of the mice under the conditions of the test. At the end of the test, the activity of the compound is assessed by counting the number of survivors among the treated animals.
as §2

E. coli [2] = test: in vivo activity in mice infected with a lethal inoculum of E. coli; conditions: Escherichia coli, sc, subcutaneous, multiple dosing, read-out: IN VIVO E. coli, number of survivors among the treated animals
Protocol: as §3, §2

[3] = oral, read-out: IN VIVO Strep. pyogenes, number of survivors among the treated animals, PO (data in parenthesis)
[4] = sc, subcutaneous, read-out: IN VIVO Strep. pyogenes, number of survivors among the treated animals

Compound | MIC (E. coli [1]) | MIC (Strep. pyrogens) | responders at 50 mg/kg (Strep. pyogenes; [3]) | responders at 50 mg/kg (Strep. pyogenes; [4]) | responders at 25 mg/kg (E. coli [2])
CCN(CC)CCCS(=O)(=O)Cc1c(C(=O)N(C)C)[n+]([O-])c2ccccc2[n+]1[O-] [N(CH3)2; SO2 (CH2)3 N(CH2 CH3)2; H] | 25 µg/mL (≈ 58.9 µM) | 6.25 µg/mL (≈ 14.7 µM) | 10% | 60% | 0%
CN(C)CCCS(=O)(=O)Cc1c(C(=O)N(C)C)[n+]([O-])c2ccccc2[n+]1[O-] [N(CH3)2; SO2 (CH2)3 N(CH3)2; H] | 3.12 µg/mL (≈ 7.88 µM) | 3.12 µg/mL (≈ 7.88 µM) | 60% | 100% | 100%
CN(C)C(=O)c1c(CS(=O)(=O)CCCN2CCCC2)[n+]([O-])c2ccccc2[n+]1[O-] [N(CH3)2; drawing 15; H] | 6.25 µg/mL (≈ 14.8 µM) | 3.12 µg/mL (≈ 7.4 µM) | – | – | 80%
CN(C)C(=O)c1c(CS(=O)(=O)CCCN2CCOCC2)[n+]([O-])c2ccccc2[n+]1[O-] [N(CH3)2; drawing 19; H] | 25 µg/mL (≈ 57 µM) | 25 µg/mL (≈ 57 µM) | 10% | 0% | 20%
CN(C)C(=O)c1c(CS(=O)(=O)CCCN2CCCCC2)[n+]([O-])c2ccccc2[n+]1[O-] [N(CH3)2; drawing 27; H] | 3.12 µg/mL (≈ 7.16 µM) | 3.12 µg/mL (≈ 7.16 µM) | 100% | 100% | 90%
CCN(CC)CCCS(=O)(=O)Cc1c(C(N)=O)[n+]([O-])c2ccccc2[n+]1[O-] [NH2; SO2 (CH2)3 N(CH2 CH3)2; H] | 6.25 µg/mL (≈ 15.8 µM) | 3.12 µg/mL (≈ 7.88 µM) | 50% | 90% | 80%
CN(C)CCCS(=O)(=O)Cc1c(C(N)=O)[n+]([O-])c2ccccc2[n+]1[O-] [NH2; SO2 (CH2)3 N(CH3)2; H] | 25 µg/mL (≈ 67.9 µM) | 1.56 µg/mL (≈ 4.24 µM) | 20% | 100% | 50%
NC(=O)c1c(CS(=O)(=O)CCO)[n+]([O-])c2ccccc2[n+]1[O-] [NH2; SO2 CH2 CH2 OH; H] | 12.5 µg/mL (≈ 38.2 µM) | 6.25 µg/mL (≈ 19.1 µM) | 80% | 40% | 0%
NC(=O)c1c(CS(=O)(=O)CCCN2CCCC2)[n+]([O-])c2ccccc2[n+]1[O-] [NH2; drawing 14; H] | 12.5 µg/mL (≈ 31.7 µM) | 6.25 µg/mL (≈ 15.8 µM) | – | – | 50%
NC(=O)c1c(CS(=O)(=O)CCCN2CCOCC2)[n+]([O-])c2ccccc2[n+]1[O-] [NH2; drawing 20; H] | 12.5 µg/mL (≈ 30.5 µM) | 12.5 µg/mL (≈ 30.5 µM) | 60% | 100% | 20%
NC(=O)c1c(CS(=O)(=O)CCCN2CCCCC2)[n+]([O-])c2ccccc2[n+]1[O-] [NH2; drawing 24; H] | 6.25 µg/mL (≈ 15.3 µM) | 6.25 µg/mL (≈ 15.3 µM) | 40% | 100% | 100%
CCCCNC(=O)c1c(CS(=O)(=O)CCCN(C)C)[n+]([O-])c2ccccc2[n+]1[O-] [NH(CH2)3 CH3; SO2 (CH2)3 N(CH3)2; H] | 25 µg/mL (≈ 58.9 µM) | 25 µg/mL (≈ 58.9 µM) | 80% | 100% | 50%
CCN(CC)CCCNC(=O)c1c(CS(=O)(=O)CCO)[n+]([O-])c2ccccc2[n+]1[O-] [NH(CH2)3 N(Et)2; SO2 CH2 CH2 OH; H] | > 200 µg/mL | 200 µg/mL (≈ 454 µM) | – | 10% | 50%
O=C(NCCCCc1ccccc1)c1c(CS(=O)(=O)CCO)[n+]([O-])c2ccccc2[n+]1[O-] [NH(CH2)4 .phi.; SO2 CH2 CH2 OH; H] | > 200 µg/mL | 3.12 µg/mL (≈ 6.8 µM) | 10% | 10% | 20%
CCCCNC(=O)c1c(CSCCO)[n+]([O-])c2ccccc2[n+]1[O-] [NHBu; SCH2 CH2 OH; H] | 50 µg/mL (≈ 142 µM) | 50 µg/mL (≈ 142 µM) | 10% | 20% | 0%
CCCCNC(=O)c1c(CS(=O)(=O)CCO)[n+]([O-])c2ccccc2[n+]1[O-] [NHBu; SO2 CH2 CH2 OH; H] | 25 µg/mL (≈ 65.2 µM) | 1.56 µg/mL (≈ 4.07 µM) | 40% | 0% | 40%
O=C(NCc1ccccc1)c1c(CS(=O)(=O)CCO)[n+]([O-])c2ccccc2[n+]1[O-] [NHCH2 .phi.; SO2 CH2 CH2 OH; H] | 200 µg/mL (≈ 479 µM) | 0.781 µg/mL (≈ 1.87 µM) | 20% | 20% | 20%

Compound | MIC (E. coli [1]) | MIC (Strep. pyrogens) | responders at 50 mg/kg (Strep. pyogenes; [3]) | responders at 50 mg/kg (Strep. pyogenes; [4]) | responders at 25 mg/kg (E. coli [2])
O=C(NCCCO)c1c(CSCCO)[n+]([O-])c2ccccc2[n+]1[O-] [NHCH2 CH2 CH2 OH; SCH2 CH2 OH; H] | 50 µg/mL (≈ 141 µM) | 25 µg/mL (≈ 70.7 µM) | 30% | 10% | 20%
O=C(NCCCO)c1c(CS(=O)(=O)CCO)[n+]([O-])c2ccccc2[n+]1[O-] [NHCH2 CH2 CH2 OH; SO2 CH2 CH2 OH; H] | 100 µg/mL (≈ 259 µM) | 12.5 µg/mL (≈ 32.4 µM) | 50% | 40% | 0%
CCCNC(=O)c1c(CS(=O)(=O)CCCN(C)C)[n+]([O-])c2ccccc2[n+]1[O-] [NHCH2 CH2 CH3; SO2 (CH2)3 N(CH3)2; H] | 25 µg/mL (≈ 60.9 µM) | 25 µg/mL (≈ 60.9 µM) | 80% | 100% | 20%
CCCNC(=O)c1c(CS(=O)(=O)CCCOC(C)=O)[n+]([O-])c2ccccc2[n+]1[O-] [NHCH2 CH2 CH3; SO2 CH2 CH2 CH2 OAc; H] | 200 µg/mL (≈ 470 µM) | 50 µg/mL (≈ 118 µM) | 0% | 30% | 0%
CN(C)CCNC(=O)c1c(CS(=O)(=O)CCO)[n+]([O-])c2ccccc2[n+]1[O-] [NHCH2 CH2 N(CH3)2; SO2 CH2 CH2 OH; H] | 50 µg/mL (≈ 125 µM) | 100 µg/mL (≈ 251 µM) | – | 20% | 0%
CN(C)CCNC(=O)c1c(CS(=O)(=O)CCCN2CCCCC2)[n+]([O-])c2ccccc2[n+]1[O-] [NHCH2 CH2 N(CH3)2; drawing 21; H] | 100 µg/mL (≈ 209 µM) | 50 µg/mL (≈ 104 µM) | – | – | 40%
COCCNC(=O)c1c(CS(=O)(=O)CCCN(C)C)[n+]([O-])c2ccccc2[n+]1[O-] [NHCH2 CH2 OCH3; SO2 (CH2)3 N(CH3)2; H] | 50 µg/mL (≈ 117 µM) | 1.56 µg/mL (≈ 3.66 µM) | 50% | 100% | 10%
COCCNC(=O)c1c(CS(=O)(=O)CCCOC(C)=O)[n+]([O-])c2ccccc2[n+]1[O-] [NHCH2 CH2 OCH3; SO2 CH2 CH2 CH2 OAc; H] | 100 µg/mL (≈ 227 µM) | 12.5 µg/mL (≈ 28.3 µM) | 10% | 20% | 10%
COCCNC(=O)c1c(CS(=O)(=O)CCO)[n+]([O-])c2ccccc2[n+]1[O-] [NHCH2 CH2 OCH3; SO2 CH2 CH2 OH; H] | 12.5 µg/mL (≈ 32.4 µM) | 0.781 µg/mL (≈ 2.03 µM) | 0% | 40% | 0%
COCCNC(=O)c1c(CS(=O)(=O)CCCN2CCCCC2)[n+]([O-])c2ccccc2[n+]1[O-] [NHCH2 CH2 OCH3; drawing 25; H] | 50 µg/mL (≈ 107 µM) | 1.56 µg/mL (≈ 3.35 µM) | 100% | 100% | 20%
CC(=O)OCCCSCc1c(C(=O)NCCO)[n+]([O-])c2ccccc2[n+]1[O-] [NHCH2 CH2 OH; S(CH2)3 OAc; H] | 100 µg/mL (≈ 253 µM) | 6.25 µg/mL (≈ 15.8 µM) | 30% | 10% | 30%
O=C(NCCO)c1c(CSCCO)[n+]([O-])c2ccccc2[n+]1[O-] [NHCH2 CH2 OH; SCH2 CH2 OH; H] | 50 µg/mL (≈ 147 µM) | 12.5 µg/mL (≈ 36.8 µM) | 50% | 30% | 0%
CN(C)CCCS(=O)(=O)Cc1c(C(=O)NCCO)[n+]([O-])c2ccccc2[n+]1[O-] [NHCH2 CH2 OH; SO2 (CH2)3 N(CH3)2; H] | 50 µg/mL (≈ 121 µM) | 50 µg/mL (≈ 121 µM) | 0% | 60% | 0%
CCNC(=O)c1c(CS(=O)(=O)CCCCN(C)C)[n+]([O-])c2ccccc2[n+]1[O-] [NHCH2 CH3; SO2 (CH2)4 N(CH3)2; H] | 50 µg/mL (≈ 122 µM) | 12.5 µg/mL (≈ 30.5 µM) | – | – | 20%
CCNC(=O)c1c(CS(=O)(=O)CCCN2CCCC2)[n+]([O-])c2ccccc2[n+]1[O-] [NHCH2 CH3; drawing 16; H] | 50 µg/mL (≈ 118 µM) | 12.5 µg/mL (≈ 29.6 µM) | – | – | 60%
CNC(=O)c1c(CS(=O)(=O)CCCCN(C)C)[n+]([O-])c2ccccc2[n+]1[O-] [NHCH3; SO2 (CH2)4 N(CH3)2; H] | 50 µg/mL (≈ 126 µM) | 50 µg/mL (≈ 126 µM) | – | – | 40%
CNC(=O)c1c(CS(=O)(=O)CCCN2CCCC2)[n+]([O-])c2ccccc2[n+]1[O-] [NHCH3; drawing 13; H] | 6.25 µg/mL (≈ 15.3 µM) | 3.12 µg/mL (≈ 7.65 µM) | – | – | 80%
